Assay results: ChEMBL document CHEMBL1132670, “Combinatorial search of substituted beta-cyclodextrins for phosphatase-like activity” (Bioorg Med Chem Lett, 1999)

Assay: Pseudo-first-order rate constant was determined by hydrolysis p-NPP in the presence of Zn 2+ at 37 C
Format: ADME

Compound `OC[C@H]1O[C@@H]2O[C@H]3[C@H](O)[C@@H](O)[C@@H](O[C@H]4[C@H](O)[C@@H](O)[C@@H](O[C@H]5[C@H](O)[C@@H](O)[C@@H](O[C@H]6[C@H](O)[C@@H](O)[C@@H](O[C@H]7[C@H](O)[C@@H](O)[C@@H](O[C@H]8[C@H](O)[C@@H](O)[C@@H](O[C@H]1[C@H](O)[C@H]2O)O[C@@H]8CO)O[C@@H]7CO)O[C@@H]6CO)O[C@@H]5CO)O[C@@H]4CO)O[C@@H]3CO` [BETADEX] has a K obs of 4.16e-07 s⁻¹.
